US10377770B2 (Novartis AG, priority 2015, dated 2019)

What follows are compounds tested against C-Raf FL (full length CRAF with Y340E and Y341E activating mutations, co-expressed with h14-3-3 zeta) (Homo sapiens (Human), UniProt P04049, Y340E/Y341E) (assay: In vitro Raf activity determination, AlphaScreen p-MEK readout, c-Raf (C-Raf FL)). Conditions: c-Raf approximately 4 nM, ATP 1 μM, pre-incubation 60 minutes, reaction 1 hour.
C-Raf FL (full length CRAF with Y340E and Y341E activating mutations, co-expressed with h14-3-3 zeta), sequence (P04049 whole entry Y340E/Y341E): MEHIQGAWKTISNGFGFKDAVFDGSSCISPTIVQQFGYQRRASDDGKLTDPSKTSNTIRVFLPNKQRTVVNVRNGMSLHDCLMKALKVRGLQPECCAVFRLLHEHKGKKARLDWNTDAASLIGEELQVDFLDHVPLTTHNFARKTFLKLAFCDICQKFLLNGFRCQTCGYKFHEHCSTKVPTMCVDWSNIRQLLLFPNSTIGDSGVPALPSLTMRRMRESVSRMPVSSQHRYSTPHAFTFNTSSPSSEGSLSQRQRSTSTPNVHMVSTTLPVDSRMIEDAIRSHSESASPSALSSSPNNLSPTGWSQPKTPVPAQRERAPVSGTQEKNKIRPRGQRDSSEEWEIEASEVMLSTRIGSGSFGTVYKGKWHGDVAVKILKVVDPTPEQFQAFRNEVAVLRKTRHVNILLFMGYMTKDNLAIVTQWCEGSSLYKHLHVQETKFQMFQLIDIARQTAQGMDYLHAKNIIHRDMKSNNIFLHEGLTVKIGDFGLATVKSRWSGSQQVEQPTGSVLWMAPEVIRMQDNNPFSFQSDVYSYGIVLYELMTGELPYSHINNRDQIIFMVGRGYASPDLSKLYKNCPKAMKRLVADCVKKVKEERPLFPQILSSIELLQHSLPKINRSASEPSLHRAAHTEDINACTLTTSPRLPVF
C-Raf FL (full length CRAF with Y340E and Y341E activating mutations, co-expressed with h14-3-3 zeta), sequence (P63104 whole entry partner): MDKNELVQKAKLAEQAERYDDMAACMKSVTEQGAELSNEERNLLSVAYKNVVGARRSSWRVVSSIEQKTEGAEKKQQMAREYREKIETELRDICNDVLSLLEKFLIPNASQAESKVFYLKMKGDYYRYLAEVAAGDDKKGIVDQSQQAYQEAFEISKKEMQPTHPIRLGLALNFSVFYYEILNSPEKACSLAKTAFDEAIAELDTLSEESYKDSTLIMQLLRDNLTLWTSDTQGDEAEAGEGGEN
Type: biochemical
Summary of the method: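 Phosphorylation of kinase-dead biotinylated MEK1 (~10 nM) by C-Raf FL (~4 nM) read by AlphaScreen luminescence with anti-phospho-MEK1/2 after EDTA stop. ATP was 1 μM, with a 1 h reaction at room temperature. Compounds were pre-incubated with enzyme and substrate for 60 min in Tris/MgCl2 buffer, pH 7.5.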
`CCN1C(=O)C2CCOCCC2c2cc(-c3cc(NC(=O)c4ccnc(C(C)(C)F)c4)cnc3C)cnc21` (stereo not drawn) [Example 251, N-(5-((5a, 11b- trans)-7-ethyl-6-oxo-1,2,4,5,5a, 6,7,11b-octahydrooxepino [4,5-c[1,8]naphtliyridin-10-yl)-6-methylpyridin-3-yl)-2-(2-fluoropropan-2-yl)isonicotinamide] was tested, and the IC50 was 0.2 nM. Work on `CCN1C(=O)[C@@H]2COCC[C@H]2c2cc(-c3cc(NC(=O)c4ccnc(C(F)(F)F)c4)cnc3C)cnc21` [Example 252, N-(5-((4aS, 10bR)-6-ethyl-5-oxo-2,4,4a,5,6,10b-hexahydro-1H-pyrano[3,4-c][1,8]naphthyridin-9-yl)-6-methylpyridin-3-yl)-2-(trifluoromethyl) isonicotinamide] yielded an IC50 of 0.1 nM. Work on `CCN1C(=O)[C@@H]2COCC[C@H]2c2cc(-c3cc(NC(=O)c4ccnc(C(F)(F)F)c4F)ccc3C)cnc21` [Example 253, N-(3-((4aS, 10bR)-6-ethyl-5-oxo-2,4,4a,5,6,10b-hexahydro-1H-pyrano[3,4-c][1,8]naphthyridin 9-yl)-4-methylphenyl)-3-fluoro-2-(trifluoromethyl) isonicotinamide] yielded an IC50 of 3.2 nM. `CCN1C(=O)[C@@H]2COCC[C@H]2c2cc(-c3cc(NC(=O)c4ccnc(C(C)(C)F)c4)ccc3C)cnc21` [Example 254, N-(3-((4aS, 10bR)-6-ethyl-5-oxo-2,4,4a,5,6,10b-hexahydro-1H-pyrano[3,4-c][1,8]naphthyridin-9-yl)-4-methylphenyl)-2-(2-fluoropropan-2-yl)isonicotinamide] showed an IC50 of 0.2 nM. Compound `CCN1C(=O)[C@H]2COCC[C@@H]2c2cc(-c3cc(NC(=O)c4cccc(C(F)(F)F)c4F)cnc3C)cnc21` [Example 255, N-(5-((4aR, 10bS)-6-ethyl-5-oxo-2,4,4a,5,6,10b-hexahydro-1H-pyrano[3,4-c][1,8]naphthyridin-9-yl)-6-methylpyridin-3-yl)-2-fluoro-3-(trifluoromethyl) benzamide] has an IC50 of 0.8 nM. With `CCN1C(=O)[C@@H]2COCC[C@H]2c2cc(-c3cc(NC(=O)c4cccc(C(F)(F)F)c4F)cnc3C)cnc21` [Example 256, N-(5-((4aS, 10bR)-6-ethyl-5-oxo-2,4,4a,5,6,10b-hexahydro-1H-pyrano[3,4-c][1,8]naphthyridin-9-yl)-6-methylpyridin-3-yl)-2-fluoro-3-(trifluoromethyl) benzamide] the IC50 was 0.1 nM. For `Cc1ncc(NC(=O)c2cccc(C(F)(F)F)c2)cc1-c1cnc2c(c1)[C@@H]1CCOC[C@H]1C(=O)N2CCO` [Example 259, N-(5-((4aS, 10bR)-6-(2-hydroxyethyl)-5-oxo-2,4,4a,5,6,10b-hexahydro-1H-pyrano[3,4-c][1,8]naphthyridin-9-yl)-6-methylpyridin-3-yl)-3-(trifluoromethyl) benzamide], the IC50 was 0.6 nM. With `Cc1ncc(NC(=O)c2ccnc(C(C)(C)F)c2)cc1-c1cnc2c(c1)[C@@H]1CCOC[C@H]1C(=O)N2CCO` [Example 260, 2-(2-fluoropropan-2-yl)-N-(5-((4aS, 10bR)-66-(2-hydroxyethyl)-5-oxo-2,4,4a,5,6,10b-hexahydro-1H-pyrano[3,4-c][1,8]naphthyridin-9-yl)-6-methylpyridin-3-yl)isonicotinamide] the IC50 was 0.1 nM. Compound `Cc1ccc(NC(=O)c2ccnc(C(F)(F)F)c2)cc1-c1cnc2c(c1)[C@@H]1CCOC[C@H]1C(=O)N2C(C)C` [Example 261, N-(3-((4aS, 10bR)-6-isopropyl-5-oxo-2,4,4a,5,6,10b-hexahydro-1H-pyrano[3,4-c][1,8]naphthyridin-9-yl)-4-methylphenyl)-2 (trifluoromethyl) isonicotinamide] has an IC50 of 0.2 nM. Compound `Cc1ncc(NC(=O)c2cccc(C(F)(F)F)c2)cc1-c1cnc2c(c1)[C@@H]1CCOC[C@H]1C(=O)N2C(C)C` [Example 262, N-(5-((4aS, 10bR)-6-isopropyl-5-oxo-2,4,4a,5,6,10b-hexahydro-1H-pyrano[3,4-c][1,8]naphthyridin-9-yl)-6-methylpyridin-3-yl)-3-(trifluoromethyl) benzamide] has an IC50 of 0.7 nM. `Cc1ccc(NC(=O)c2ccnc(C(C)(F)F)c2)cc1-c1cnc2c(c1)[C@@H]1CCOC[C@H]1C(=O)N2C(C)C` [Example 263, 2-(1,1-difluoroethyl)-N-(3-((4aS, 10bR)-6-isopropyl-5-oxo-2,4,4a,5,6,10b-hexahydro-1H-pyrano[3,4-c][1,8]naphthyridin-9-yl)-4-methylphenyl) isonicotinamide] gave an IC50 of 0.3 nM. In the case of `Cc1ccc(NC(=O)c2ccnc(C(C)(F)F)c2)cc1-c1cnc2c(c1)[C@@H]1CCOC[C@H]1C(=O)N2CC(F)F` [Example 265, 2-(1,1-difluoroethyl)-N-(3-((4aS, 10bR)-6-(2,2-difluoroethyl)-5-oxo-2,4,4a,5,6,10b-hexahydro-1H-pyrano[3,4-c][1,8]naphthyridin-9-yl)4-methylphenyl) isonicotinamide], the IC50 is reported as 0.1 nM. `Cc1ncc(NC(=O)c2cccc(C(F)(F)F)c2)cc1-c1cnc2c(c1)[C@@H]1CCOC[C@H]1C(=O)N2CC(F)F` [Example 266, N-(5-((4aS, 10bR)-6-(2,2-difluoroethyl)-5-oxo-2,4,4a,5,6,10b-hexahydro-1H-pyrano[3,4-c][1,8]naphthyridin-9-yl)-6-methylpyridin-3-yl)-3-(trifluoromethyl) benzamide] gave an IC50 of 0.3 nM. `CCN1C(=O)[C@@H]2[C@H]3COC[C@H]3[C@@H]2c2cc(-c3cc(NC(=O)c4ccnc(C(C)(F)F)c4)ccc3C)cnc21` [Example 269, 2-(1,1-difluoroethyl)-N-(3-((6aS, 6bS, 9aS, 9bS)-5-ethyl-6-oxo-5,6,6a,6b,7,9,9a,9b-octahydrofuro[3′,4′: 3,4]cyclobuta[1,2-c][1,8]naphthyridin-2-yl)-4-methylphenyl) isonicotinamide] gave an IC50 of 0.3 nM. In the case of `CCN1C(=O)[C@H]2[C@@H]3COC[C@@H]3[C@H]2c2cc(-c3cc(NC(=O)c4ccnc(C(F)(F)F)c4)ccc3C)cnc21` [Example 270, N-(3-((6aR, 6bR, 9aR, 9bR)-5-ethyl-6-oxo-5,6,6a,6b,7,9,9a,9b-octahydrofuro[3′,4′: 3,4]cyclobuta[1,2-c][1,8]naphthyridin-2-yl)-4-methylphenyl)-2-(trifluoromethyl) isonicotinamide], the IC50 is reported as 0.2 nM. In the case of `CCN1C(=O)[C@H]2[C@@H]3COC[C@@H]3[C@H]2c2cc(-c3cc(NC(=O)c4ccnc(C(C)(F)F)c4)ccc3C)cnc21` [Example 271, 2-(1,1-difluoroethyl)-N-(3-((6aR, 6bR, 9aR, 9bR)-5-ethyl-6-oxo-5,6,6a,6b,7,9,9a,9b-octahydrofuro[3′,4′: 3,4]cyclobuta[1,2-c][1,8]naphthyridin 2-yl)-4-methylphenyl) isonicotinamide], the IC50 is reported as 0.2 nM. `CCN1C(=O)[C@@H]2[C@H]3COC[C@H]3[C@@H]2c2cc(-c3cc(NC(=O)c4cccc(C(F)(F)F)c4)cnc3C)cnc21` [Example 272, N-(5-((6aS, 6bS, 9aS, 9bS)-5-ethyl-6-oxo-5,6,6a,6b,7,9,9a,9b-octahydrofuro[3′,4′: 3,4]cyclobuta[1,2-c][1,8]naphthyridin-2-yl)-6-methylpyridin-3-yl)-3-(trifluoromethyl) benzamide] was tested, and the IC50 was 0.5 nM.
